Laboratory results taken from patent US11390617B2, “Methods of treating non-Hodgkin lymphoma using 2-(2,6-dioxopiperidin-3-yl)-4-((2-fluoro-4-((3-morpholinoazetidin-1-yl)methyl)benzyl)amino)isoindoline-1,3-dione” (Celgene Corporation, priority 2019, dated 2022).

Tests used:
Experiment in all cases: NHL cell line viability/apoptosis 384-well flow cytometry assay
Format in all cases: cell-based
TMD8 = TMD8 (DLBCL), 120 hours
How it was run: (§1)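 Serial dilutions from 0.00015 to 10 μM, or DMSO at 0.1% (v/v), are added and cells incubated 120 hours. Annexin V and DRAQ7 staining then separates viable from apoptotic cells. Nonlinear regression of normalized curves yields IC50, Emax, EC50, Ymax and AUC.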

OCI-LY1 = OCI-LY1 (DLBCL), 120 hours
How it was run: as §1

WSU-DLCL = WSU-DLCL (DLBCL), 120 hours
How it was run: as §1

Rec-1 = Rec-1 (MCL), 120 hours
How it was run: as §1

U-2932 = U-2932 (DLBCL), 120 hours
How it was run: as §1

U-2904 = U-2904 (DLBCL), 120 hours
How it was run: as §1

KARPAS-422 = KARPAS-422 (DLBCL), 120 hours
How it was run: as §1

Farage = Farage (DLBCL), 120 hours
How it was run: as §1

NU-DUL-1 = NU-DUL-1 (DLBCL), 120 hours
How it was run: as §1

[1] = Homo sapiens, read-out: IC50 (% Viable Cells)
[2] = read-out: IC50 (% Viable Cells)

SMILES: O=C1CC[C@H](N2C(=O)c3cccc(NCc4ccc(CN5CC(N6CCOCC6)C5)cc4F)c3C2=O)C(=O)N1 [Compound 1, (S)-2-(2,6-dioxopiperidin-3-yl)-4-((2-fluoro-4-((3-morpholinoazetidin-1-yl)methyl)benzyl)amino)isoindoline-1,3-dione]
- EC50 (TMD8; Homo sapiens): 6.17 nM
- IC50 (TMD8; [1]): 2.46 nM
- AUC (% Viable Cells) (TMD8): 4.187
- AUC (Apoptosis) (TMD8): 963.3
- Emax (% Viable Cells) (TMD8): 0.245%
- Ymax (Apoptosis) (TMD8): 97.2%
- EC50 (OCI-LY1; Homo sapiens): 33.4 nM
- IC50 (OCI-LY1; [1]): 6 nM
- AUC (% Viable Cells) (OCI-LY1): 22.77
- AUC (Apoptosis) (OCI-LY1): 852.3
- Emax (% Viable Cells) (OCI-LY1): 1.037%
- Ymax (Apoptosis) (OCI-LY1): 90.09%
- AUC (% Viable Cells) (WSU-DLCL): 341.9
- AUC (Apoptosis) (WSU-DLCL): 565.1
- EC50 (WSU-DLCL): 18 nM
- Emax (% Viable Cells) (WSU-DLCL): 27.83%
- Ymax (Apoptosis) (WSU-DLCL): 59.91%
- IC50 (WSU-DLCL; [2]): 142 nM
- EC50 (Rec-1; Homo sapiens, Rec1): 9.26 nM
- IC50 (Rec-1; Homo sapiens, Rec1, read-out: IC50 (% Viable Cells)): 32 nM
- AUC (% Viable Cells) (Rec-1): 281.8
- AUC (Apoptosis) (Rec-1): 508.5
- Emax (% Viable Cells) (Rec-1): 21.04%
- Ymax (Apoptosis) (Rec-1): 57.27%
- EC50 (U-2932; Homo sapiens, U2932): 567 nM
- IC50 (U-2932; Homo sapiens, U2932, read-out: IC50 (% Viable Cells)): 36 nM
- AUC (% Viable Cells) (U-2932): 163.7
- AUC (Apoptosis) (U-2932): 212.8
- Emax (% Viable Cells) (U-2932): 12.8%
- Ymax (Apoptosis) (U-2932): 25.81%
- AUC (% Viable Cells) (U-2904): 334.1
- AUC (Apoptosis) (U-2904): 456.1
- EC50 (U-2904): 3290 nM
- Emax (% Viable Cells) (U-2904): 7.609%
- Ymax (Apoptosis) (U-2904): 77.39%
- IC50 (U-2904; [2]): 201 nM
- EC50 (KARPAS-422; Homo sapiens): 46.1 nM
- IC50 (KARPAS-422; [1]): 13.1 nM
- AUC (% Viable Cells) (KARPAS-422): 19.97
- AUC (Apoptosis) (KARPAS-422): 911.9
- Emax (% Viable Cells) (KARPAS-422): 0.8721%
- Ymax (Apoptosis) (KARPAS-422): 93.99%
- AUC (% Viable Cells) (Farage): 10.16
- AUC (Apoptosis) (Farage): 728.7
- EC50 (Farage): 30.2 nM
- Emax (% Viable Cells) (Farage): 0.7936%
- Ymax (Apoptosis) (Farage): 84.17%
- IC50 (Farage; [2]): 2.38 nM
- EC50 (NU-DUL-1; Homo sapiens): 63 nM
- IC50 (NU-DUL-1; [1]): 35.3 nM
- AUC (% Viable Cells) (NU-DUL-1): 22.12
- AUC (Apoptosis) (NU-DUL-1): 962.8
- Emax (% Viable Cells) (NU-DUL-1): 0.0228%
- Ymax (Apoptosis) (NU-DUL-1): 99.84%
